# Laboratory results: ChEMBL document CHEMBL5055671, “Targeting a Novel KRAS Binding Site: Application of One-Component Stapling of Small (5-6-mer) Peptides” (J Med Chem, 2021)
# Numbered stars: 1 amine (or outer) side, 2 acyl side, 3 side chain; on linkers, the order of the positions; unused ones are H or OH. Bridge positions count the residues as written; N and C are the ends. Square brackets hold non-standard residues; d marks the D form. Peptide text beside a SMILES is read from it. ξ: configuration not given here. Nle(4-yne,6-yl) = O=C([C@H](CC#CC[*:3])N[*:1])[*:2]; ξIle = CC[C@H](C)C(N)C(=O)O
# Biological target: GTPase KRas (Homo sapiens, UniProt P01116, G12V)
# Assay: Inhibition of alexa fluor 647-labeled kinase tracer 314 binding to biotinylated-KRAS G12V mutant (unknown origin) measured after 60 mins by HTRF competition binding assay
# Conditions: not given
row,SMILES,pIC50
1,CC(C)C[C@H](NC(=O)[C@H]1COCc2cn(nn2)CCCCC(=O)NCC(=O)N2CCC[C@H]2C(=O)N[C@@H](Cc2cccc3ccccc23)C(=O)N1)C(N)=O,< 4

# Same assay, conditions: read-out: IC50
row,SMILES,IC50 [µM]
1,CC(C)C[C@H](NC(=O)[C@@H]1COCc2cnnn2CCCCC(=O)NCC(=O)N2CCC[C@H]2C(=O)N[C@@H](Cc2cccs2)C(=O)N1)C(N)=O,53
2,CC(C)C[C@H](NC(=O)[C@@H]1COCc2cnnn2CCCCC(=O)N[C@@H](CCC(=O)O)C(=O)N2CCC[C@H]2C(=O)N[C@@H](Cc2cccc3ccccc23)C(=O)N1)C(N)=O,49
3,CC(C)C[C@H](NC(=O)[C@@H]1COCc2cnnn2CCCCC(=O)NCC(=O)N2CCC[C@H]2C(=O)N[C@@H](CC2CCCCC2)C(=O)N1)C(N)=O,100
4,CC(C)C[C@H](NC(=O)[C@@H]1COCc2cnnn2CCCCCCCC(=O)N2CCC[C@H]2C(=O)N[C@@H](Cc2cccc3ccccc23)C(=O)N1)C(N)=O,81
5,CCCC[C@H](NC(=O)[C@@H]1COCc2cnnn2CCCCC(=O)NCC(=O)N2CCC[C@H]2C(=O)N[C@@H](Cc2cccc3ccccc23)C(=O)N1)C(N)=O,100
6,CC(C)C[C@H](NC(=O)[C@@H]1COCc2cnnn2CCCCC(=O)NCC(=O)N2CCCCC[C@H]2C(=O)N[C@@H](Cc2cccc3ccccc23)C(=O)N1)C(N)=O,55
7,CC(C)C[C@H](NC(=O)[C@H]1CCn2nncc2CCCC(=O)NCC(=O)N2CCC[C@H]2C(=O)N[C@@H](Cc2cccc3ccccc23)C(=O)N1)C(N)=O,13
8,CC(C)C[C@H](NC(=O)[C@@H]1COCc2cnnn2CCCCC(=O)NCC(=O)N2CCC[C@H]2C(=O)N[C@@H](c2ccccc2)C(=O)N1)C(N)=O,> 100
9,CC(C)C[C@H](NC(=O)[C@@H]1COCc2cnnn2CCCCC(=O)N[C@H](CC(=O)O)C(=O)N2CCC[C@H]2C(=O)N[C@@H](Cc2cccc3ccccc23)C(=O)N1)C(N)=O,77
10,NC(=O)C[C@H](NC(=O)[C@@H]1COCc2cnnn2CCCCC(=O)NCC(=O)N2CCC[C@H]2C(=O)N[C@@H](Cc2cccc3ccccc23)C(=O)N1)C(N)=O,48
11,NC(=O)CC[C@H](NC(=O)[C@@H]1COCc2cnnn2CCCCC(=O)NCC(=O)N2CCC[C@H]2C(=O)N[C@@H](Cc2cccc3ccccc23)C(=O)N1)C(N)=O,50
12,CC(C)C[C@H](NC(=O)[C@@H]1COCc2cnnn2CCCCC(=O)NCC(=O)N2CCC[C@H]2C(=O)N[C@@H](Cc2ccc3ccccc3c2)C(=O)N1)C(N)=O,9.5
13,CC(C)C[C@H](NC(=O)[C@H]1Cn2nncc2CCCC(=O)NCC(=O)N2CCC[C@H]2C(=O)N[C@@H](Cc2cccc3ccccc23)C(=O)N1)C(N)=O,31
14,CC(C)C[C@H](NC(=O)[C@@H]1COCc2cnnn2CCCCC(=O)NCC(=O)N2CCC[C@H]2C(=O)N[C@@H](Cc2ccccc2Cl)C(=O)N1)C(N)=O,> 100
15,CC(C)C[C@H](NC(=O)[C@@H]1COCc2cnnn2CCCCC(=O)N[C@@H](C)C(=O)N2CCC[C@H]2C(=O)N[C@@H](Cc2cccc3ccccc23)C(=O)N1)C(N)=O,9.7
16,CCCC[C@@H]1NC(=O)[C@@H]2CCCN2C(=O)CNC(=O)CCCCn2nncc2COC[C@@H](C(=O)N[C@@H](CC(C)C)C(N)=O)NC1=O,48
17,CC(C)C[C@H](NC(=O)[C@@H]1COCc2cnnn2CCCCC(=O)NCC(=O)N2CC[C@@H](O)[C@H]2C(=O)N[C@@H](Cc2cccc3ccccc23)C(=O)N1)C(N)=O,70
18,CC(C)C[C@H](NC(=O)[C@@H]1COCc2cnnn2CCCCC(=O)N[C@H](C)C(=O)N2CCC[C@H]2C(=O)N[C@@H](Cc2cccc3ccccc23)C(=O)N1)C(N)=O,25
19,CC(C)C[C@H](NC(=O)[C@@H]1COCc2cnnn2CCCCCC(=O)N2CCC[C@H]2C(=O)N[C@@H](Cc2cccc3ccccc23)C(=O)N1)C(N)=O,12
20,CC(=O)N[C@@H](Cc1cccc2ccccc12)C(=O)N[C@@H](COCc1cnnn1CCCCC(=O)NCC(N)=O)C(=O)N[C@@H](CC(C)C)C(N)=O,38
21,CC(C)C[C@H](NC(=O)[C@@H]1COCc2cnnn2CCCCC(=O)NCC(=O)N2CC[C@H]2C(=O)N[C@@H](Cc2cccc3ccccc23)C(=O)N1)C(N)=O,32
22,NC(=O)[C@H](CC1CCCCC1)NC(=O)[C@@H]1COCc2cnnn2CCCCC(=O)NCC(=O)N2CCC[C@H]2C(=O)N[C@@H](Cc2cccc3ccccc23)C(=O)N1,100
23,CC(C)C[C@H](NC(=O)[C@@H]1COCc2cnnn2CCCCC(=O)NCC(=O)N2CCC[C@H]2C(=O)N[C@@H](CC2CC2)C(=O)N1)C(N)=O,32
24,CC(C)C[C@H](NC(=O)[C@H]1COCc2cn(nn2)CCCCC(=O)NCC(=O)N2CCC[C@H]2C(=O)N[C@@H](Cc2cccc3ccccc23)C(=O)N1)C(N)=O,> 100
25,CC(C)C[C@H](NC(=O)[C@H]1CCCc2cnnn2CCCCC(=O)NCC(=O)N2CCC[C@H]2C(=O)N[C@@H](Cc2cccc3ccccc23)C(=O)N1)C(N)=O,19
26,CC[C@@H](C)[C@@H]1NC(=O)[C@@H]2CCCN2C(=O)[C@H](Cc2ccc(O)cc2)NC(=O)[C@@H](NC(=O)[C@H](CC(=O)O)NC(C)=O)CCCn2nncc2COC[C@@H](C(=O)N[C@@H](CC(C)C)C(=O)N[C@@H](CC(C)C)C(=O)N2CCC[C@H]2C(N)=O)NC1=O,> 89

row,SMILES,IC50 [µM]
1,CC(C)C[C@H](NC(=O)[C@@H]1COCc2cnnn2CCCCCCCCCC(=O)N2CCC[C@H]2C(=O)N[C@@H](Cc2cccc3ccccc23)C(=O)N1)C(N)=O,28
2,CC(C)C[C@H](NC(=O)[C@@H]1COCc2cnnn2CCCCC(=O)N[C@H](CCC(=O)O)C(=O)N2CCC[C@H]2C(=O)N[C@@H](Cc2cccc3ccccc23)C(=O)N1)C(N)=O,100
3,CC(C)C[C@H](NC(=O)[C@@H]1COCc2cnnn2CCCCC(=O)NCC(=O)N2CCC[C@H]2C(=O)N[C@@H](Cc2cccnc2)C(=O)N1)C(N)=O,41
4,CC(C)C[C@H](CC(=O)[C@@H]1COCc2cnnn2CCCCC(=O)NCC(=O)N2CCC[C@H]2C(=O)C[C@@H](C)C(=O)C1)C(N)=O,91
5,CC(=O)N[C@@H](CCC(=O)O)C(=O)N[C@H]1CCCn2nncc2COC[C@@H](C(=O)N[C@@H](CC(C)C)C(=O)N[C@@H](C)C(=O)N2CCC[C@H]2C(N)=O)NC(=O)[C@H](Cc2cccc3ccccc23)NC(=O)[C@@H]2CCCN2C(=O)CNC1=O,> 83
6,CC(=O)N[C@@H](CC(=O)O)C(=O)N[C@H]1CCCn2nncc2COC[C@H](C(=O)N[C@@H](CC(C)C)C(N)=O)NC(=O)[C@H](Cc2cccc3ccccc23)NC(=O)[C@@H]2CCCN2C(=O)CNC1=O,38
7,CC(C)C[C@H](NC(=O)[C@H]1Cc2cnnn2CCCCC(=O)NCC(=O)N2CCC[C@H]2C(=O)N[C@@H](Cc2cccc3ccccc23)C(=O)N1)C(N)=O,65
8,CC(C)C[C@H](NC(=O)[C@@H]1COCc2cnnn2CCCCC(=O)NCC(=O)N(C)[C@@H](C(C)C)C(=O)N[C@@H](Cc2cccc3ccccc23)C(=O)N1)C(N)=O,100
9,CC(C)C[C@H](NC(=O)[C@@H]1COCc2cnnn2CCCCC(=O)NCC(=O)N2CCC[C@H]2C(=O)N[C@@H](Cc2ccc(Cl)cc2)C(=O)N1)C(N)=O,> 74
10,CC(C)C[C@H](NC(=O)[C@H]1COCc2cnnn2CCCCC(=O)NCC(=O)N2CCC[C@H]2C(=O)N[C@@H](Cc2cccc3ccccc23)C(=O)N1)C(=O)N[C@@H](C)C(=O)N1CCC[C@H]1C(N)=O,46
11,CC(C)C[C@H](NC(=O)[C@@H]1COCc2cnnn2CCCCC(=O)NCC(=O)N2CCC[C@H]2C(=O)N[C@@H](Cc2ccccc2)C(=O)N1)C(N)=O,> 38
12,CC(=O)N[C@@H](CC(=O)O)C(=O)N[C@H]1CCCn2nncc2COC[C@@H](C(=O)N[C@@H](CC(C)C)C(=O)N[C@@H](C)C(=O)N2CCC[C@H]2C(N)=O)NC(=O)[C@H](Cc2cccc3ccccc23)NC(=O)[C@@H]2CCCN2C(=O)CNC1=O,40
13,CC(C)C[C@H](NC(=O)[C@@H]1COCc2cnnn2CCCCC(=O)N[C@@H](CC(=O)O)C(=O)N2CCC[C@H]2C(=O)N[C@@H](Cc2cccc3ccccc23)C(=O)N1)C(N)=O,66
14,CC(C)C[C@H](NC(=O)[C@@H]1COCc2cnnn2CCCCC(=O)NCC(=O)N2C[C@H](O)C[C@H]2C(=O)N[C@@H](Cc2cccc3ccccc23)C(=O)N1)C(N)=O,95
15,NC(=O)[C@H](CC1CC1)NC(=O)[C@@H]1COCc2cnnn2CCCCC(=O)NCC(=O)N2CCC[C@H]2C(=O)N[C@@H](Cc2cccc3ccccc23)C(=O)N1,29
16,CC(C)C[C@H](NC(=O)[C@@H]1COCc2cnnn2CCCCC(=O)NCC(=O)N2CCC[C@H]2C(=O)N[C@H](Cc2ccccc2)C(=O)N1)C(N)=O,> 82
17,NC(=O)[C@@H](NC(=O)[C@@H]1COCc2cnnn2CCCCC(=O)NCC(=O)N2CCC[C@H]2C(=O)N[C@@H](Cc2cccc3ccccc23)C(=O)N1)C1CCCCC1,78
18,CC(=O)N[C@@H](CCC(=O)O)C(=O)N[C@H]1CCCn2nncc2COC[C@H](C(=O)N[C@@H](CC(C)C)C(N)=O)NC(=O)[C@H](Cc2cccc3ccccc23)NC(=O)[C@@H]2CCCN2C(=O)CNC1=O,93
19,"CC[C@H](C)C1NC(=O)[C@@H]2CCCN2C(=O)[C@H](Cc2ccc(O)cc2)NC(=O)[C@@H](NC(=O)[C@H](CC(=O)O)NC(=O)[C@H](Cc2ccc(O)cc2)NC(=O)[C@H](Cc2ccccc2)NC(=O)[C@H](Cc2c[nH]cn2)NC(=O)[C@@H](N)Cc2ccccc2)CC#CCSC[C@@H](C(=O)N[C@@H](CC(C)C)C(=O)N[C@H](C(=O)N2CCC[C@H]2C(=O)N2CCC[C@H]2C(N)=O)[C@@H](C)CC)NC1=O (some centres undefined) (H-FHFYD[Nle(4-yne,6-yl)]YP[ξIle]CLIPP-NH2; thioether 6-10)",0.023
20,CC(C)C[C@H](NC(=O)[C@@H]1COCc2cnnn2CCCCC(=O)N2CCC[C@H]2C(=O)N[C@@H](Cc2cccc3ccccc23)C(=O)N1)C(N)=O,48
21,CC(C)C[C@H](NC(=O)[C@@H]1COCc2cnnn2CCCCC(=O)NCC(=O)NC(C)(C)C(=O)N[C@@H](Cc2cccc3ccccc23)C(=O)N1)C(N)=O,20
22,CC(C)C[C@H](NC(=O)[C@@H]1COCc2cnnn2CCCCC(=O)NCC(=O)N2CCC[C@H]2C(=O)N[C@@H](Cc2c[nH]c3ccccc23)C(=O)N1)C(N)=O,18
23,CC(C)C[C@H](NC(=O)[C@@H]1COCc2cnnn2CCCCC(=O)NCC(=O)N2Cc3ccccc3C[C@H]2C(=O)N[C@@H](Cc2cccc3ccccc23)C(=O)N1)C(N)=O,5.8
24,CC(C)C[C@@H](C(N)=O)N(C)C(=O)[C@@H]1COCc2cnnn2CCCCC(=O)NCC(=O)N2CCC[C@H]2C(=O)N[C@@H](Cc2cccc3ccccc23)C(=O)N1,26
25,C[C@H](NC(=O)[C@@H]1COCc2cnnn2CCCCC(=O)NCC(=O)N2CCC[C@H]2C(=O)N[C@@H](Cc2cccc3ccccc23)C(=O)N1)C(N)=O,37

# Same assay, conditions: read-out: pIC50 (converted)
row,IC50 [µM],SMILES
1,> 79.4,CC[C@@H](C)[C@@H]1NC(=O)[C@@H]2CCCN2C(=O)[C@H](Cc2ccc(O)cc2)NC(=O)[C@@H](NC(=O)[C@H](CC(=O)O)NC(C)=O)CCCn2nncc2COC[C@@H](C(=O)N[C@@H](CC(C)C)C(=O)N[C@@H](CC(C)C)C(=O)N2CCC[C@H]2C(N)=O)NC1=O
2,> 79.4,CC(=O)N[C@@H](CCC(=O)O)C(=O)N[C@H]1CCCn2nncc2COC[C@@H](C(=O)N[C@@H](CC(C)C)C(=O)N[C@@H](C)C(=O)N2CCC[C@H]2C(N)=O)NC(=O)[C@H](Cc2cccc3ccccc23)NC(=O)[C@@H]2CCCN2C(=O)CNC1=O
